Key:
Homo sapiens = organism: Homo sapiens; experiment: Tested for concentration required for antagonism of U-46,619-Induced Human Platelet Aggregation; type: functional
Thromboxane A2 receptor = target: T1, Thromboxane A2 receptor (Homo sapiens, UniProt P21731); experiment: Tested for binding affinity against platelet TXA2 receptor in washed human platelets using [125I]BOP as radioligand
T1 sequence (P21731 whole entry): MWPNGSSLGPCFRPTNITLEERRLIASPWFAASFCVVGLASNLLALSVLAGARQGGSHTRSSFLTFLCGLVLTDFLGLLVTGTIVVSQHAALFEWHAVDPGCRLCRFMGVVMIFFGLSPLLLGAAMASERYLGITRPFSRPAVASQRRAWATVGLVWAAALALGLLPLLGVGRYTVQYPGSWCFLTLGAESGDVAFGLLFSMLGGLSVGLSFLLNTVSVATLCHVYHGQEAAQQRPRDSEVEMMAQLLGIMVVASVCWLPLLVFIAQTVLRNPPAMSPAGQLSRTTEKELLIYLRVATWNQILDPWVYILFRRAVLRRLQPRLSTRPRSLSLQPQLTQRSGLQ

Compound	IC50 (Homo sapiens)	Kd (Thromboxane A2 receptor)
O=C(O)CCC/C=C\C[C@H]1CCC[C@H]1NS(=O)(=O)c1ccccc1	250 nM	36 nM
O=C(O)CCC/C=C/CCCNS(=O)(=O)c1ccccc1	1000 nM	67 nM
O=C(O)CCCCCCCCNS(=O)(=O)c1ccccc1	1500 nM	172 nM

Now those with a lower IC50 (Homo sapiens), led by results:

IC50 (Homo sapiens)	Kd (Thromboxane A2 receptor)	Compound
150 nM	7.5 nM	O=C(O)CCC/C=C\C[C@H]1CCC[C@@H]1NS(=O)(=O)c1ccccc1
32 nM	2.9 nM	O=C(O)CCC/C=C\CC1C2CCC(C2)C1NS(=O)(=O)c1ccccc1 (stereo not given)

Reference: ChEMBL document CHEMBL1125980, “Structural homologies among thromboxane (TXA2) receptor antagonists: Minimal pharmacophoric requirements for high affinity interaction with TXA2 receptors” (Bioorg Med Chem Lett, 1991)
